Assay results published in ChEMBL document CHEMBL1131788, “Isolation and structure of SCH 351633: a novel hepatitis C virus (HCV) NS3 protease inhibitor from the fungus Penicillium griseofulvum” (Bioorg Med Chem Lett, 1999).

Each compound was assayed against NS3 (Hepatitis C virus, UniProt A3EZJ3) (assay: In vitro antiviral activity against hepatitis C virus (HCV) NS3 protease using scintillation proximity assay).
Set-up: species or system Hepacivirus hominis

NS3, sequence (A3EZJ3 whole entry): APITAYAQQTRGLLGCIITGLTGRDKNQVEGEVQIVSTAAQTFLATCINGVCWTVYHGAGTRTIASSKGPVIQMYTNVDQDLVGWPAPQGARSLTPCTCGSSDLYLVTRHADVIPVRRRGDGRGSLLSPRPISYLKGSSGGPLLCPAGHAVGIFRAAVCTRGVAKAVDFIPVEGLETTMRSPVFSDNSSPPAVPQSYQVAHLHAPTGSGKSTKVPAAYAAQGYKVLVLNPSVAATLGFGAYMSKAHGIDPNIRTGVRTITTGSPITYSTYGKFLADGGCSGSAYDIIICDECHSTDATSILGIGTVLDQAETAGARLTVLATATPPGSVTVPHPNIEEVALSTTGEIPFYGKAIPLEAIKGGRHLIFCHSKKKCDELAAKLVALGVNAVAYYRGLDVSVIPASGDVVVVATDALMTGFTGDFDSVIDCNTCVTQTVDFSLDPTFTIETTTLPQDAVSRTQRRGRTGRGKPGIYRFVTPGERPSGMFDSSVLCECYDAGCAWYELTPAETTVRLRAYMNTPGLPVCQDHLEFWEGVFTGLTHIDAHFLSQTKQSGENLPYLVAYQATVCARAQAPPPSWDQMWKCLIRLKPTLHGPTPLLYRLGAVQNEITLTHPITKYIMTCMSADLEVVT

Structure (SMILES) | IC50 [µM]
O=C1C=C2C(=CCOC2OC(=O)c2ccc(Br)cc2)O1 (stereo not drawn) | 37.4
CC(=O)OC1OCC=C2OC(=O)C=C21 (stereo not drawn) | 36.7
O=C1C=C2C(=CCOC2O)O1 (stereo not drawn) [PATULIN] | 24.7
